Results from US20070054848A1, “Composition and method for nerve regeneration” (priority 2003, published 2007).

Key:
[1] = molecular target: T1, Recombinant human p75-Fc chimera (Homo sapiens, UniProt P08138); test: Co-precipitation of recombinant p75 and gangliosides; assay type: binding; conditions: precipitation with protein A sepharose, Western blot
T1 construct: Recombinant p75 extracellular domain fused to Fc purified from Sf21 cells; purchased Genzyme-Techne; host or cells: Sf21 cells
T1 sequence (P08138 29-250 limits assumed): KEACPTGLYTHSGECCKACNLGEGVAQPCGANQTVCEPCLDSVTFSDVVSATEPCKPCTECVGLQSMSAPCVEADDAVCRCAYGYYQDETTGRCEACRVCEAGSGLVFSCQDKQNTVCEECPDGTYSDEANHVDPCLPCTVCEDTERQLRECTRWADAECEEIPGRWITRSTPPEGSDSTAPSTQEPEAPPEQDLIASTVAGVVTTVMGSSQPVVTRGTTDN
Procedure: Recombinant human p75-Fc chimera (1 μg; Genzyme-Techne) and 1 μg of purified ganglioside GT1b (>98% purity, Seikagaku Co.) were incubated in 200 μl 0.025% Tween20/PBS for 2 h, and p75 was precipitated using proteinA sepharose (Amersham Pharmacia Biotech). The resultant precipitates were electrophoretically transferred to polyvinylidene difluoride membranes after SDS-PAGE with 7% gels and were immunoblotted with anti GT1b antibody (IgM, Seikagaku Co.) or anti p75 antibody.

N1E-115 cells [2] = test: Morphological analysis of N1E-115 cells; assay type: cell-based; conditions: for neurite formation / population with long neurites: Y-27632 10 μM for 30 minutes, constructs 48 hours after transfection
Procedure: N1E-115 cells were transfected with GFP, GFP-full-p21 or GFP-ΔNLS-p21, and cultured in serum-starved condition for 5 hours. Then, the medium was replaced with DMEM containing 10% fetal bovine serum. The cells were fixed at 48 hours after transfection. The morphology of the cells was categorized into 3 groups; neurite positive cells, round cells and the other cells. The cells with longer neurites than their soma were defined as neurite positive cells. The other cells had various features including microspikes, ruffles and a flattened appearance.

NIH3T3 cells = test: Stress fiber formation assay in NIH3T3 cells; assay type: cell-based; conditions: serum-starved 16 hours, 10% serum 10 minutes
Procedure: (§1) NIH3T3 cells, N1E-115 cells and 293T cells were maintained in DMEM containing 10% fetal bovine serum. Lipofectamine 2000 (Invitrogen) was used for transfection. For the stress fiber formation assay, NIH3T3 cells were cultured in serum-free medium for 16 hours after transfection. Stress fiber formation was evoked by incubating the cells with 10% serum for 10 minutes. Hippocampal neurons were prepared from 18-day-old Sprague-Dawley rats, as previously described (Neumann, H. et al., Science. 269:549-552, 1995). Briefly, hippocampi were dissected and the meninges removed. The trimmed tissue was dissociated by trituration. The dissociated cells were plated on dishes pre-coated with poly-L-lysine (Sigma), and cultured in DMEM containing 10% fetal bovine serum for 24 hours. Then, the medium was replaced with DMEM with B27 supplement (Invitrogen), and the cells were transfected with GFP or GFP-ΔNLS-p21. Neuronal morphology was estimated at 24 hours after the transfection.

Rho-kinase [3] = molecular target: T2, Rho-kinase (Bos taurus, UniProt Q28021); test: Co-immunoprecipitation of p21 constructs and Rho-kinase in 293T cells; assay type: cell-based; conditions: anti-p21 antibody
Procedure: 293T cells were transfected with myc-Rho-kinase in combination with GFP-full-p21 or GFP-ΔNLS-p21. At 48 hours after transfection, the cells were lysed with 1 ml of lysis buffer (50 mM Tris-HCl (pH 7.5), 150 mM NaCl, 10% glycerol, 0.5% Nonidet-P40 including protease inhibitor cocktail tablets (Roche). The cell lysates were centrifuged at 13,000×g for 20 minutes, and the supernatant was collected. Immunoprecipitations were performed for 2 hours at 4° C. using an anti-p21 mouse monoclonal antibody (Santa Cruz Biotechnology) and 0.75 ml of the supernatant. The immunocomplexes were collected with protein G-Sepharose (Amersham Pharmacia Biotech) slurry (50% v/v), washed 4 times with lysis buffer, and subjected to SDS-PAGE. They were transferred to the polyvinylidene difluoride membranes and probed with the anti-myc rabbit polyclonal antibody (Santa Cruz Biotechnology). Interaction of endogenous proteins in N1E-115 cells was assessed in the same way using anti Rho-kinase antibody.

hippocampal neurons = test: Neurite outgrowth and branching of hippocampal neurons; assay type: cell-based; conditions: rat E18 hippocampal neurons, 24 hours after transfection
Procedure: as §1
Cultures of the hippocampal neurons from rat E18 embryos were used. […] Twenty-four hours after transfection, the cells were fixed and immunolabeled with β-tubulin III. The total neurite length per neuron, the axonal length, defined as the length of the longest neurite per neuron, the number of primary processes originating from the neuronal somata, and the number of branch points per neuron were determined (Neumann, H. et al., J. Neurosci. 22:854-862, 2002).

Rho-kinase [4] = molecular target: T2, Rho-kinase; test: Rho-kinase kinase assay with lysates of transfected 293T cells; assay type: cell-based; conditions: 293T cells transfected with myc-Rho-kinase; Y-27632 10 μM for 30 minutes
Procedure: Cells were lysed with lysis buffer (50 mM Tris-HCl (pH 7.5), 150 mM NaCl, 10% glycerol, 1% Nonidet-P40 and protease inhibitor cocktail). The kinase assay was carried out using the lysates.

N1E-115 cells [5] = test: Growth and differentiation of N1E-115 cells; assay type: cell-based; conditions: for proliferation of N1E-115 cells: until 48 hours after transfection
Procedure: Cells were seeded in 6-cm dishes, transfected, and were counted 1 and 2 days after transfection. The relative increases in the number of the cells are shown. The values are means±SEM of 3 independent experiments. *, p<0.01 compared with full-p21 (Student's t-test). There is no significant difference between GFP and GFP-ΔNLS-p21 transfected cells. […] N1E-115 cells were treated with DMSO, or transfected with GFP-full-p21 or GFP-ΔNLS-p21, then were harvested at 1, 2, 3 and 4 days. Arrowheads indicate hyperphosphorylated pRb, and the arrow indicates underphosphorylated pRb. […] Shown are photomicrographs of the cells transfected with each construct. […] N1E-115 cells exposed to Y-27632 (10 μM) for 30 minutes or expressing GFP, GFP-full-p21 or GFP-ΔNLS-p21 were categorized into 3 groups; the cells with long neurites (long neurite), cells with a round form (round), and cells with other forms (others). Data represent means±SEM of 3 independent experiments. *, p<0.05 compared with control. **, p<0.01 compared with control as well as full-p21 (Student's t-test).
as §1

[6] = test system: cerebellar granule neurons from P7 rats; test: Neurite outgrowth assay, cerebellar neurons; assay type: cell-based, rat; conditions: cerebellar granule neurons; data not shown
[7] = molecular target: catalytic domain of Rho-kinase (GST-CAT) (Bos taurus, UniProt Q28021); test: In vitro binding assay of p21 and Rho-kinase (GST-CAT); conditions: co-incubated at the indicated concentrations
p75 = molecular target: T3, p75 (Homo sapiens, UniProt P08138); test: Co-precipitation of p75 and Rho GDI with purified recombinant proteins; assay type: binding; conditions: p75 precipitated from transfected 293T cells; purified recombinant proteins
T3 construct: host or cells: 293T cells (p75)
T3 sequence (P08138 29-427): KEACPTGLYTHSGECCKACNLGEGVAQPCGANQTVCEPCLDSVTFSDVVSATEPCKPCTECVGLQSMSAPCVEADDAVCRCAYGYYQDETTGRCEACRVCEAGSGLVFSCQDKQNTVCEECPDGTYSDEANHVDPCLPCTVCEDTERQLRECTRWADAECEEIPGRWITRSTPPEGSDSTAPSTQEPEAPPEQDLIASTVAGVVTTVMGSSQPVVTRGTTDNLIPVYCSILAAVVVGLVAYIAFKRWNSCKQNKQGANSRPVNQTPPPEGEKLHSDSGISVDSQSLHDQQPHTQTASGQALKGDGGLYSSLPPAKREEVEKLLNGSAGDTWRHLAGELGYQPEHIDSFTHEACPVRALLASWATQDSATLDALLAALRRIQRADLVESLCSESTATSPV

cerebellar neurons = test: Neurite outgrowth assay, post-natal cerebellar neurons; assay type: cell-based, mice; conditions: cerebellar neurons transfected with myc-tagged Rho GDI
[8] = molecular target: T4, interaction of p75 with Rho GDI (Homo sapiens, UniProt P08138); test: Co-immunoprecipitation of p75 with Rho GDI or RhoA in transfected N1E-115 cells; assay type: cell-based; conditions: N1E-115 cells transfected with FLAG-tagged p75; Nogo peptide 4 μM, MAG-Fc 25 μg/ml, NGF 100 ng/ml
T4 construct: expressed in transfected cells; host or cells: N1E-115 cells
T4 sequence (P08138 29-427): T3 sequence (P08138 29-427)

RhoA = test: Affinity-precipitation of GTP-RhoA in cerebellar neurons; assay type: cell-based, mice; conditions: post-natal cerebellar neurons, wild type; MAG-Fc 25 μg/ml, Nogo peptide 4 μM
Procedure: 293 cells were transfected with pcDNA3 vectors containing wild type RhoA whose NH2-terminus is tagged with HA (Yamashita, T. et al., Neuron. 24:585-593, 1999) and/or full-length human p75 by lipofection using Lipofectamine 2000 (Gibco BRL). Cerebellar neurons from P9 mice were isolated as described previously (Cai et. al, Neuron, 22:89-101, 1999). Cells were lysed in 50 mM Tris (pH 7.5), 1% Triton X-100, 0.5% sodium deoxycholate, 0.1% SDS, 500 mM NaCl, 10 mM MgCl2, with leupeptin and aprotinin, each at 10 μg/ml. Cell lysates were clarified by centrifugation at 13,000×g at 4° C. for 10 min, and the supernatants were incubated with the 20 μg of GST-Rho binding domain of Rhotekin beads (Upstate Biotech.) at 4° C. for 45 min. The beads were washed 4 times with washing buffer (50 mM Tris (pH 7.5) containing 1% Triton X-100, 150 mM NaCl, 10 mM MgCl2, 10 μg/ml each of leupeptin and aprotinin). Bound Rho proteins were detected by Western blotting using a monoclonal antibody against RhoA (Santa Cruz Biotechnology).
Amino-terminally FLAG-tagged human p75 or the deletion mutants of p75 ICD were cloned into pcDNA3.1 expression plasmid, and were transfected with 293T cells. […] Bound Rho proteins were detected by Western blotting using a monoclonal antibody against RhoA (Santa Cruz Biotechnology).

T2 sequence (Q28021 whole entry): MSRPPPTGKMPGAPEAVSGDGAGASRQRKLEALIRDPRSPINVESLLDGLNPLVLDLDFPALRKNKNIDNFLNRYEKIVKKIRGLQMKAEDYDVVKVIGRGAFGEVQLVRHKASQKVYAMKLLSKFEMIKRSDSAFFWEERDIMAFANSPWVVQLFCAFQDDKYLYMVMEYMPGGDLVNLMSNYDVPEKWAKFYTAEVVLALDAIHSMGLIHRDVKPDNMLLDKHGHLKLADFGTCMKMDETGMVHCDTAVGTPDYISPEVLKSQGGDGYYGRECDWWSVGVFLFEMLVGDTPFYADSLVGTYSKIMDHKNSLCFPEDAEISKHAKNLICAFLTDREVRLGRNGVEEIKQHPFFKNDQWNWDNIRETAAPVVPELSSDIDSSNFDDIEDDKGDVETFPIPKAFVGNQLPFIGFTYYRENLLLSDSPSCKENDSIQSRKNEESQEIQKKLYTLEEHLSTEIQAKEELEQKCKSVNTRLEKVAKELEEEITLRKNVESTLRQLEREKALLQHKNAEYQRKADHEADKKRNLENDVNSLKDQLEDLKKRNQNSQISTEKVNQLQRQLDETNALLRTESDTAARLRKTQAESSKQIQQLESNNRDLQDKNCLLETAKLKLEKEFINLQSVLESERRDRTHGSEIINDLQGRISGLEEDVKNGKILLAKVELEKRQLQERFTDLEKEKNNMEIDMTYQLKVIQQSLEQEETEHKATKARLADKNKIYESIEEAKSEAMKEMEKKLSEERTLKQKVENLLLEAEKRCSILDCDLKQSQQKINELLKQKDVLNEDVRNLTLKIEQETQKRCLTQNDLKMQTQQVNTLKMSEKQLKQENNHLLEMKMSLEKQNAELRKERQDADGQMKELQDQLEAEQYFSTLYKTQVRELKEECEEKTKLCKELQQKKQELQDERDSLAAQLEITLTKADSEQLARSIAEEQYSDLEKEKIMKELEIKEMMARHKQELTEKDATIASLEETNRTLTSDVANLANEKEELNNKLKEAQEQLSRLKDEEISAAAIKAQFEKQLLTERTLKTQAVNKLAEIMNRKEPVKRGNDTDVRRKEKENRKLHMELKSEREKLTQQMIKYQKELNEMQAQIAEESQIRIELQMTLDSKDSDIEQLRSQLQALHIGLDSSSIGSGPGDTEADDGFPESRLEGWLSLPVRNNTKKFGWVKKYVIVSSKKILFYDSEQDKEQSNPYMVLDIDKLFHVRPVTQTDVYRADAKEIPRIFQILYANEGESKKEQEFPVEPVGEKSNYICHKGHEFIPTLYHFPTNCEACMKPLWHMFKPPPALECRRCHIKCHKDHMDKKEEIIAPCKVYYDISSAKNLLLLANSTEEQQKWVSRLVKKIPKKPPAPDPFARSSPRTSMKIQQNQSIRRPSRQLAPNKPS
Chain of catalytic domain of Rho-kinase (GST-CAT) (Q28021 6-553 limits assumed): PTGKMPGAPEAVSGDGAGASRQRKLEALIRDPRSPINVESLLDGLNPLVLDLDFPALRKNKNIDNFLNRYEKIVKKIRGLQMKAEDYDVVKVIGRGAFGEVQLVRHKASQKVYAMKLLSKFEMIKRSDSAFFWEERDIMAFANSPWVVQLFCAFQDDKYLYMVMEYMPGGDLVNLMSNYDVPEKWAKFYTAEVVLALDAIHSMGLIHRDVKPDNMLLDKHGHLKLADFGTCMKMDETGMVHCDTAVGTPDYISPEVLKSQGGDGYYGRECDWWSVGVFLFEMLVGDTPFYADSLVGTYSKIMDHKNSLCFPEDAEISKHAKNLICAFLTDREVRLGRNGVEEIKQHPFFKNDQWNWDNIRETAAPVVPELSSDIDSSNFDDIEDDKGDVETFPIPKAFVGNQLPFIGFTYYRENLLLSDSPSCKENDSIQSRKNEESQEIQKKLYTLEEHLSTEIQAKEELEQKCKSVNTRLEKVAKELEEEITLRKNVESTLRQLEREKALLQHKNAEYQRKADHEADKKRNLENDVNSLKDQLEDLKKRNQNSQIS

In the case of GD1a, the “association with recombinant p75 extracellular domain fused to Fc” value [1] is reported as “did not see any interaction”.
For “ΔNLS-p21: p21 with loss of nuclear localization signal (aa 1-140), expressed as GFP fused protein”, the “cells that extended long neurites” value (N1E-115 cells [2]; 48 hours after transfection) was “more than 45%”, the “increase of cells with long neurites compared to the control” value (N1E-115 cells [2]; 48 hours after transfection) was 3.1 fold and the “actin stress fiber formation after the addition of serum” value (NIH3T3 cells) was “little stress fiber formation”. The “co-immunoprecipitation of myc-tagged Rho-kinase” value (Rho-kinase [3]) was “efficiently precipitated myc-tagged Rho-kinase”, the “number of primary processes” value (hippocampal neurons) was “no change in the number of primary processes” and the “number of branch points per neuron” value (hippocampal neurons; control 1.3) was 2.6. For the same compound, the “axonal length (length of the longest neurite per neuron)” value (hippocampal neurons; control 66.3) was 162.9 μm, the “total neurite length per neuron” value (hippocampal neurons; control 135.9) was 307.2 μm and the “Rho-kinase activity (compared to the original)” value (Rho-kinase [4]) was 48.1%. The differentiation inducing activity (N1E-115 cells [5]; cyclin D3 and pRb Western blot) was “has no differentiation inducing activity” and the “proliferation of N1E-115 cells” value (N1E-115 cells [5]) was “proliferated until 48 hours after transfection”.
For `Cn1c2ccccc2c2c3c(c4c5ccccc5n(CCC#N)c4c21)CNC3=O` [G06976], the “neurite outgrowth response to MAG-Fc or Nogo peptide with another PKC inhibitor” value [6] was “Same results were obtained”.
With “AKRRRLSSLRA [S6 kinase substrate peptide]” the “interaction of p21 with Rho-kinase” value [7] was “inhibited the interaction of p21 with Rho-kinase in a dose dependent manner”.
In the case of `C[C@@H](N)[C@H]1CC[C@H](C(=O)Nc2ccncc2)CC1` [Y-27632, reference compound], the “neurite formation / population with long neurites” value (N1E-115 cells [2]) is reported as “induced significant neurite formation”, the “Rho-kinase activity (compared to the original)” value (Rho-kinase [4]) is reported as 51.9% and the “interaction of p21 with Rho-kinase” value [7] is reported as “inhibited the interaction of p21 with Rho-kinase in a dose dependent manner”.
With “Rho GDI: Rho GDP dissociation inhibitor; recombinant protein or myc-tagged Rho GDI plasmid over-expression” the “direct physical interaction with p75” value (p75) was “bound to p75” and the “effect of over-expression on inhibition of neurite outgrowth by MAG and the Nogo peptide” value (cerebellar neurons) was “abolished these inhibitory effects”.
“full-length p21: pEGFP-full-p21 (aa 1-164), mammalian expression vector for GFP fused protein” was tested, and the “neurite formation / population with long neurites” value (N1E-115 cells [2]) was “no increase in the cell population that had long neurites”, the “actin stress fiber formation after the addition of serum” value (NIH3T3 cells) was “Extensive actin stress fibers were observed” and the “co-immunoprecipitation of myc-tagged Rho-kinase” value (Rho-kinase [3]) was “only a faint signal could be detected”. The “Rho-kinase activity (compared to the original)” value (Rho-kinase [4]) was “no significant effect” and the “proliferation of N1E-115 cells” value (N1E-115 cells [5]) was “stopped proliferation”.
For “NGF: Nerve growth factor [reference compound]”, the “interaction of p75 with Rho GDI as well as RhoA” value [8] was “abolished the interaction” and the RhoA activity (RhoA) was “rapidly inhibits RhoA activity”.
With GT1b the “association with recombinant p75 extracellular domain fused to Fc” value [1] was “binds to p75 in a manner that is SDS-resistant”.
“RhoA: bacterially produced RhoA, GDP-bound, GTP-bound or nucleotide-depleted” was tested, and the “direct physical interaction with p75” value (p75) was “no interaction between them in any nucleotide state”.
